This assay concerns HUVEC tube formation. The assay can be described thus: HUVEC tube formation inhibition assay. More on the design: key to Tube formation inhibition: −: no inhibition of tube formation; +/−: rare inhibition of tube formation; +: light inhibition of tube formation and slight tube cleavage; ++: significant inhibition of tube formation and heavy tube cleavage; +++: no tube formation. The conditions noted are these: 50 μg/ml; for Tube formation inhibition: TABLE 2, HUVEC on Matrigel, 18 hours; for Inhibition of HUVEC tube formation (in words): text summary of TABLES 1 and 2. It is filed as cell-based, Human. The procedure: Human umbilical vein endothelial cells (HUVECs) were isolated from freshly obtained cords after cesarean section according to Grants' method (Grants D S et al., Cell, 58, pp 923-943, 1989). The isolated HUVECs were grown in culture media comprising M-199 (Gibco BRL, 31100-035), 10% FBS, 50 μg/ml ECGS (Endothelial cell growth supplement, Sigma E2795), and 50 μg/ml heparin (Sigma H3149).
HUVECs isolated in REFERENCE EXAMPLE 1 were cultured within passage 5, and then were divided into 20,000 to 50,000 cells per well of 48 well plate coated with, Matrigel (BD Biosciences, Bedford, Mass.). Crude extracts, non-polar solvent extracts, or fractions of C. officinale of EXAMPLES 1 to 4 were added to the above HUVEC culture well at the concentration of 50 μg/ml, respectively, and DMSO was added as a control. They were grown with culture media of the above REFERENCE EXAMPLE 1.
After HUVECs were further incubated at 37° C. for 18 hours, tube formation was observed using microscope. The results were summarized in TABLES 1 and 2 (−: no inhibition of tube formation, +/− rare inhibition of tube formation, +: light inhibition of tube formation and slight tube cleavage, ++: significant inhibition of tube formation and heavy tube cleavage, +++: no tube formation).

2 molecules from patent US7482027B2, “Composition for the prevention or treatment of diseases associated with angiogenesis” (AngioLab, Inc., priority 2005, dated 2009) can be followed below.

With `CCCCC1OC(=O)c2c(O)cccc21` (single isomer, unassigned) [AS44-C-2-C-b-III, 3-butyl-7-hydroxyphthalide], the Tube formation inhibition result is recorded as “+++” and the “Inhibition of HUVEC tube formation (in words)” value is “strongly inhibited HUVEC tube formation”.

With `C=CC(O)C#CC#CC(O)C=C` (single isomer, unassigned) [AS44-C-2-D-b-IV, 1,9-decadiene-4,6-diyne-3,8-diol], the Tube formation inhibition result was “+++” and the “Inhibition of HUVEC tube formation (in words)” value was “strongly inhibited HUVEC tube formation”.
